The source of these data is paper PMC11178805, “Ligand-based design of [^18F]OXD-2314 for PET imaging in non-Alzheimer’s disease tauopathies” (Nature Communications, 2024).

Assay [1] deals with 3R/4R-tau aggregates in AD tissue (Homo sapiens, UniProt P10636). Description: Competition binding vs [^3H]OXD-2115 in AD tissue homogenates. Conditions: vs [^3H]OXD-2115, AD tissue homogenates, n = 1. The protocol:
(§1) Fresh frozen, autopsy-confirmed human PD anterior cingulate cortex brain tissue blocks (1 cm^3) were obtained from Dr. Thomas Beach at Banner/Sun Health AZ with funding from the Michael J. Fox Foundation and contained frequent α-synuclein aggregates and no other detectable aggregated amyloid species. The frozen tissue blocks were prepared for the binding assays as previously described[47],[48], except that equal quantities of the homogenates of three AD brains (AD1-AD3, Table S1) were pooled, as were homogenates from three PSP brains (PSP1-PSP3), three CBD brains (CBD1-CBD3), three Pick’s brains (PiD1-PiD3), and 4 PD brains (PD1-PD4) in order to help minimize the inter-subject variability within the different neuropathological groups. Individual subcortical brain tissues from a PSP subject (PSP4) and a CBD subject (CBD4), as well as with the middle frontal cortex of a control subject, were prepared for the binding assays as previously described[47],[48].
(§2) The equilibrium inhibition constant (Ki) values of the unlabeled compounds were determined versus tritium-labeled radioligands using published methods.

For a further assay, the target named is T1, aggregated Aβ (Homo sapiens, UniProt P05067).
T1 construct: tissue Neurodegenerative Disease Brain Bank at UCSF; host or cells: human AD brain, middle frontal gyrus, pooled homogenate
T1 sequence (P05067 672-713 limits assumed): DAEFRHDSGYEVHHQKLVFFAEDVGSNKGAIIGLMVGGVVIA
Put plainly: Competition binding vs [^3H]PiB in AD tissue homogenates. The conditions noted are these: n = 3. The protocol:
as §1, §2

A further assay concerns the target T2, MAO-B (Homo sapiens, UniProt P27338).
T2 construct: purchased Eurofins, France (contract screening)
T2 sequence (P27338 1-520): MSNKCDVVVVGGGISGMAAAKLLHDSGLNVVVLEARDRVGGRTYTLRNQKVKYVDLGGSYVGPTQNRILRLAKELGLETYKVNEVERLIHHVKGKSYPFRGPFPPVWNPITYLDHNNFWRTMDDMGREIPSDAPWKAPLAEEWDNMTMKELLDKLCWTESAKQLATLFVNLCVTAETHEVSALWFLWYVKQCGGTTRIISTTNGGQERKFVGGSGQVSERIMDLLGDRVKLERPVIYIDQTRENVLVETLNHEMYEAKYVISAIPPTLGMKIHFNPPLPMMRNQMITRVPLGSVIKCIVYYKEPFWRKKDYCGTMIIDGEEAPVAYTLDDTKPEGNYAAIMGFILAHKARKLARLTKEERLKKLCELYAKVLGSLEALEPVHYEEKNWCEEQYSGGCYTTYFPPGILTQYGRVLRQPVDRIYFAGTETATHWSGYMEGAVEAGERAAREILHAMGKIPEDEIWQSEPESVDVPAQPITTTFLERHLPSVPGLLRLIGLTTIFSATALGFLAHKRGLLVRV
Put plainly: In vitro pharmacology screen (Eurofins): MAO-B. The conditions noted are these: read-out: inhibition of MAO-B binding. The protocol: OXD-2314 binding to CNS receptors was calculated as a percentage of inhibition of a receptor-specific radioligand. Enzyme inhibition was calculated as the percent inhibition of baseline enzyme activity where inhibition above 50% was considered significant. […] Norepinephrine transports are expressed in low concentration throughout the brain and its relative concentration are not affected by aging or neurodegeneration. 5-lipoxygenase may be overexpressed in aging brain and play some role in neurodegeneration, which could be necessary to further investigate in vivo[42]. Off-target binding to monoamine oxidase A and B (MAO-A and MAO-B) has been seen with some tau PET radiotracers[43],[44].

3R/4R-tau aggregates in AD tissue, sequence (P10636 623-695 limits assumed): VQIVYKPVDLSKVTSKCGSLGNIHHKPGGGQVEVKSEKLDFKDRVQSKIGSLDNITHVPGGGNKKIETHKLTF

For `COC1CCCN(c2ccc(-c3cc4cc(O)ccc4[nH]3)c(F)n2)C1` (stereo not drawn) [OXD-2314, 2-(2-fluoro-6-(3-methoxypiperidin-1-yl)pyridin-3-yl)-1H-indol-5-ol], the values for the Ki (in assay [1]; at aggregated Aβ) were 8.8 nM and 161 ± 34 nM, respectively. In addition, the inhibition (usually how much of the control response was suppressed) at 10 µM on MAO-B came to 37%.
